Measurements as given in publication PMC4104174 (Journal of the American Chemical Society, 2014).
Where two headings read alike, the source gives them in different places.

Legend:
[1] = target: hCAII; details: cited from earlier work
[2] = target: human carbonic anhydrase II (hCAII) (Homo sapiens, UniProt P00918); test: hCAII activity assay; format: biochemical
[3] = free ligand acidity; cited from earlier work

Molecule | Ki [2] [µM] | pKa [3] | other results
2-mercaptopyridine-N-oxide [1,2-HOPTO] |  |  | Ki ([1]; previously reported): 850 µM
Oc1ccccc1S [2-MP, 2-mercaptophenol] |  |  | Ki [1]: 3 ± 0.7 µM
Cc1cc(=S)c(O)co1 [ATM, 5-hydroxy-2-methyl-4H-pyran-4-thione] | 650 ± 60 | 7.64 | fold more potent (Ki) than TM and TPMA ([2]; ATM vs TM and TPMA, hCAII): roughly 2 fold
Cc1occc(=S)c1O [TM, 3-hydroxy-2-methyl-4H-pyran-4-thione] | 1400 ± 200 | 8.06 | 
Oc1coccc1=S [TPMA, 3-hydroxy-4H-pyran-4-thione] | 1100 ± 200 |  | 
